What was measured:
[1] = biological target: T1, Transmembrane protease serine 6 (Homo sapiens) (UniProt Q8IU80); assay: Inhibition of human matriptase-2 transfected in HEK cells assessed as residual activity at 40 uM using Boc-Gln-Ala-Arg-AMC as substrate after 20 mins by fluorimetric analysis; format: cell-based; settings: HEK293
T1 sequence (whole entry): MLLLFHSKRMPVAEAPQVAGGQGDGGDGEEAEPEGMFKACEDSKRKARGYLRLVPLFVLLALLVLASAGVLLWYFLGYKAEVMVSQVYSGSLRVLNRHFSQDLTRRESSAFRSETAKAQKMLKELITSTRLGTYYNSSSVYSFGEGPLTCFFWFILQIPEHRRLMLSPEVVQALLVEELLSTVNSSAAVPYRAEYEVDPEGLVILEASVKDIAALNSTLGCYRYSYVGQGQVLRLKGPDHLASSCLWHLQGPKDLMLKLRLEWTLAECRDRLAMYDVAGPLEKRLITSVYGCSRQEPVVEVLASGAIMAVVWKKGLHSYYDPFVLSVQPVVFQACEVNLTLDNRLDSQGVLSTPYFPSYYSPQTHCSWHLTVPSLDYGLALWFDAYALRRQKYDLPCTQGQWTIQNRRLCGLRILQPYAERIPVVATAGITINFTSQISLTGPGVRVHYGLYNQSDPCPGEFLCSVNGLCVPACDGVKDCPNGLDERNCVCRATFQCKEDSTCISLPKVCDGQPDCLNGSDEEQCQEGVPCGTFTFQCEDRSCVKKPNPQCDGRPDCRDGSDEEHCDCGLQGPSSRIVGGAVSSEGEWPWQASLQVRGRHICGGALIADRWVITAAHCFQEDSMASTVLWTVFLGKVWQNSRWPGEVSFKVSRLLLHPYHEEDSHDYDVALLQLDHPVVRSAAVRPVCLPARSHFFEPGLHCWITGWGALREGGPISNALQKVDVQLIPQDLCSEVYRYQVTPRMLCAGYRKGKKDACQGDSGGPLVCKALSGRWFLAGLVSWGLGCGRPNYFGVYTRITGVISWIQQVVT

Trypsin = Trypsin (Homo sapiens, UniProt P07477+P07478+P35030); assay: Inhibition of human trypsin using Boc-Gln-Ala-Arg-AMC as substrate after 20 mins by fluorimetric analysis; format: protein assay
[2] = biological target: T2, Transmembrane protease serine 6 (Homo sapiens, UniProt Q8IU80); assay: Inhibition of human matriptase-2 transfected in HEK cells using Boc-Gln-Ala-Arg-AMC as substrate after 20 mins by fluorimetric analysis; format: cell-based, HEK293
T2 sequence (Q8IU80 whole entry): T1 sequence (whole entry)

[3] = biological target: T3, Suppressor of tumorigenicity 14 protein (Homo sapiens, UniProt Q9Y5Y6); assay: Inhibition of human matriptase using Boc-Gln-Ala-Arg-AMC as substrate after 20 mins by fluorimetric analysis
T3 sequence (Q9Y5Y6 whole entry): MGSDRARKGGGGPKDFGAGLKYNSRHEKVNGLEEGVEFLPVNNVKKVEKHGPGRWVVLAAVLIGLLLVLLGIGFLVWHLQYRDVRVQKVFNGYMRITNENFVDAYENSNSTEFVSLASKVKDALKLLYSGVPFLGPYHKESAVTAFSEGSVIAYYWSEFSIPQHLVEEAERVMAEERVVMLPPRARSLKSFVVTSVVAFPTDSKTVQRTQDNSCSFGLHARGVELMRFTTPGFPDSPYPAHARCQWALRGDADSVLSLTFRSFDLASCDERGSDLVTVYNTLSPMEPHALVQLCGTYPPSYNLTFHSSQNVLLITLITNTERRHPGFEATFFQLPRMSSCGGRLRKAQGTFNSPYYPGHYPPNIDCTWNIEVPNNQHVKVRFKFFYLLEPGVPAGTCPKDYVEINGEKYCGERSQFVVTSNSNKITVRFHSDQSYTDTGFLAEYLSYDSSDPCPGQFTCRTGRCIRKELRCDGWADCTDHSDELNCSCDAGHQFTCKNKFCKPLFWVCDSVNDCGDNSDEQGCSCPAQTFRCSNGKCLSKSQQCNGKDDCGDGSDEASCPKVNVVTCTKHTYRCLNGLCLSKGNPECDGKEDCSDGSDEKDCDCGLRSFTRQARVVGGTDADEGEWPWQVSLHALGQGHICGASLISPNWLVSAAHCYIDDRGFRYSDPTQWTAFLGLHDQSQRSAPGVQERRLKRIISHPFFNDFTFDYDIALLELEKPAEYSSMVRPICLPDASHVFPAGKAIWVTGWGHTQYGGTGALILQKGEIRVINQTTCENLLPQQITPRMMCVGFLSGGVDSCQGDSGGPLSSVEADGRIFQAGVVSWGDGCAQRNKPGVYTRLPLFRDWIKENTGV

Prothrombin = Prothrombin (Homo sapiens, UniProt P00734); assay: Inhibition of human thrombin using Cbz-Gly-Gly-Arg-AMC as substrate after 20 mins by fluorimetric analysis
Coagulation factor X = Coagulation factor X (Bos taurus, UniProt P00743); assay: Inhibition of bovine factor 10a using Boc-Ile-Glu-Gly-Arg-AMC as substrate after 20 mins by fluorimetric analysis
Coagulation factor X, sequence (P00743 41-180 limits assumed): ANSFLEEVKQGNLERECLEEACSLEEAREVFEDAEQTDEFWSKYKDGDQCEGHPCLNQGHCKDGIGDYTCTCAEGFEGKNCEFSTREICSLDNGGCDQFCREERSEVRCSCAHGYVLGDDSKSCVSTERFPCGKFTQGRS
Coagulation factor X, sequence (P00743 234-492 limits assumed): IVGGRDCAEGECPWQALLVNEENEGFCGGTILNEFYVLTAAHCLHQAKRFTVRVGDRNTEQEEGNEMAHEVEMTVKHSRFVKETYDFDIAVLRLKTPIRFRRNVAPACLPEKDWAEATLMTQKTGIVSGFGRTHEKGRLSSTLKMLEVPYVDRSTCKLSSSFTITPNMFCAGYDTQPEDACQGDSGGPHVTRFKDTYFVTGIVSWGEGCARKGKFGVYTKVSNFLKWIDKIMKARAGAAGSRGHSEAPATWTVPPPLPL

[4] = biological target: T1, Transmembrane protease serine 6 (Homo sapiens); assay: Inhibition of human matriptase-2 transfected in HEK cells assessed as residual activity at 5 uM using Boc-Gln-Ala-Arg-AMC as substrate after 20 mins by fluorimetric analysis; format: cell-based; settings: HEK293
[5] = Inhibition of bovine trypsin after 15 to 30 mins; design: species or system Bos taurus

Which Activity [1] does the source give for N=C(NC1CC1)c1ccc(N2CCCN(c3ccc(C(=N)NC4CC4)cc3)CC2)cc1 here?
Its Activity is 45%.

Which Activity [1] does the source give for N=C(N)c1ccc(NC(=O)CCC(=O)Nc2ccc(C(=N)N)cc2)cc1 here?
The Activity was 40%.

For N=C(N)c1ccc(N2CCN(c3ccc(C(=N)N)cc3)CC2)cc1, which Ki (Trypsin) is on record?
Its Ki is 513 nM.

What about the Activity [1] of the same compound?
Its Activity is 5.3%.

And the Ki [2]?
The Ki was 1160 nM.

And the Ki [3]?
The Ki was 719 nM.

And the Ki (Prothrombin)?
Its Ki is 10100 nM.

What about the Ki (Coagulation factor X) of the same compound?
The Ki was 20000 nM.

For N=C(N)c1ccc(COc2ccccc2OCc2ccc(C(=N)N)cc2)cc1, which Activity [1] is on record?
Its Activity is 46%.

With N=C(N)c1ccc(NCCCCCCCNc2ccc(C(=N)N)cc2)cc1 as the compound, how does the Ki (Trypsin) read?
The Ki was 244 nM.

And the Activity [1]?
Its Activity is 16%.

What about the Ki [2] of the same compound?
Its Ki is 3680 nM.

And the Ki [3]?
Its Ki is 558 nM.

What about the Ki (Prothrombin) of the same compound?
Its Ki is 499 nM.

And the Ki (Coagulation factor X)?
The Ki was 391 nM.

With N=C(N)c1ccc(NC(=O)CCCCCC(=O)Nc2ccc(C(=N)N)cc2)cc1 as the compound, how does the Activity [1] read?
The Activity was 63%.

With N=C(N)c1ccc(NC(=O)C(=O)Nc2ccc(C(=N)N)cc2)cc1 as the compound, how does the Ki (Trypsin) read?
The Ki was 1420 nM.

And the Activity [1]?
Its Activity is 17%.

And the Ki [2]?
The Ki was 6230 nM.

And the Ki [3]?
The Ki was 492 nM.

And the Ki (Prothrombin)?
The Ki was 15800 nM.

And the Ki (Coagulation factor X)?
The Ki was 52300 nM.

What does the source list for N=C(N)c1ccc(N2CCCN(c3ccc(C(=N)N)cc3)CC2)cc1?
Ki (Trypsin): 1900 nM; Activity [1]: 15%; Ki [2]: 4390 nM; Ki [3]: 397 nM; Ki (Prothrombin): 5300 nM; Ki (Coagulation factor X): 7830 nM

With N=C(N)c1ccc(NC(=O)CCCCCCCCC(=O)Nc2ccc(C(=N)N)cc2)cc1 as the compound, how does the Activity [1] read?
Its Activity is 33%.

For N=C(N)c1ccc(NCCCNc2ccc(C(=N)N)cc2)cc1, which Activity [1] is on record?
The Activity was 55%.

With CN(CCCN(C)c1ccc(C(=N)N)cc1)c1ccc(C(=N)N)cc1 as the compound, how does the Activity [1] read?
The Activity was 23%.

Which results are given for N=C(N)c1ccc(NC(=O)c2ccc(C(=O)Nc3ccc(C(=N)N)cc3)cc2)cc1?
Activity [1]: > 50%; Activity [4]: 93%

With N=C(N)c1ccc(NC(=O)CCCCC(=O)Nc2ccc(C(=N)N)cc2)cc1 as the compound, how does the Activity [1] read?
Its Activity is 57%.

Which Activity [1] does the source give for N=C(N)c1ccc(OCc2cccc(COc3ccc(C(=N)N)cc3)c2)cc1 here?
The Activity was 17%.

With N=C(N)c1ccc(NC(=O)CCCC(=O)Nc2ccc(C(=N)N)cc2)cc1 as the compound, how does the Activity [1] read?
Its Activity is 68%.

Which Activity [1] does the source give for N=C(N)c1ccc(NC(=O)CCCCC(=O)Nc2cccc(C(=N)N)c2)cc1 here?
Its Activity is 78%.

What does the source list for N=C(N)c1ccc(OCc2ccccc2COc2ccc(C(=N)N)cc2)cc1?
Ki (Trypsin): 221 nM; Activity [1]: 19%; Ki [2]: 5200 nM; Ki [3]: 2280 nM; Ki (Prothrombin): 279 nM; Ki (Coagulation factor X): 13700 nM

With N=C(N)c1ccc(NCCCCCCNc2ccc(C(=N)N)cc2)cc1 as the compound, how does the Activity [1] read?
The Activity was 21%.

With N=C(N)c1ccc(OCc2ccc(COc3ccc(C(=N)N)cc3)cc2)cc1 as the compound, how does the Ki (Trypsin) read?
Its Ki is 316 nM.

What about the Activity [1] of the same compound?
Its Activity is 16%.

And the Ki [2]?
Its Ki is 5700 nM.

And the Ki [3]?
The Ki was 816 nM.

What about the Ki [5] of the same compound?
The Ki was 1300 nM.

What about the Ki (Prothrombin) of the same compound?
Its Ki is 1160 nM.

What about the Ki (Coagulation factor X) of the same compound?
The Ki was 327 nM.

With N=C(N)c1ccc(NCCCCCCCCNc2ccc(C(=N)N)cc2)cc1 as the compound, how does the Ki (Trypsin) read?
Its Ki is 192 nM.

What about the Activity [1] of the same compound?
Its Activity is 8.6%.

What about the Ki [2] of the same compound?
The Ki was 1640 nM.

What about the Ki [3] of the same compound?
Its Ki is 526 nM.

And the Ki (Prothrombin)?
The Ki was 317 nM.

And the Ki (Coagulation factor X)?
Its Ki is 1290 nM.

With N=C(N)c1ccc(NCCNc2ccc(C(=N)N)cc2)cc1 as the compound, how does the Activity [1] read?
Its Activity is 23%.

With N=C(N)c1ccc(NC(=O)CCCCCCCC(=O)Nc2ccc(C(=N)N)cc2)cc1 as the compound, how does the Activity [1] read?
The Activity was 49%.

With N=C(N)c1ccc(NC(=O)c2cccc(C(=O)Nc3ccc(C(=N)N)cc3)c2)cc1 as the compound, how does the Activity [1] read?
The Activity was 32%.

For CN(CCNc1ccc(C(=N)N)cc1)c1ccc(C(=N)N)cc1, which Activity [1] is on record?
Its Activity is 21%.

With N=C(N)c1ccc(NC(=O)CCCCCCCCCCC(=O)Nc2ccc(C(=N)N)cc2)cc1 as the compound, how does the Activity [1] read?
Its Activity is 49%.

With N=C(N)c1ccc(NCCCCNc2ccc(C(=N)N)cc2)cc1 as the compound, how does the Activity [1] read?
The Activity was 27%.

For N=C(N)c1ccc(NC(=O)CCCCCCC(=O)Nc2ccc(C(=N)N)cc2)cc1, which Activity [1] is on record?
The Activity was 62%.
